From article PMC6335420, “The cell cycle regulator GpsB functions as cytosolic adaptor for multiple cell wall enzymes” (Nature Communications, 2019) come the findings set out here.

Entries after “also recorded” stand apart in the source; their conditions may differ. Where two headings read alike, the source gives them in different places. Residues, ends and D or L forms follow the SMILES beside them. *: point of attachment. X1 = CN(C)c1ccc2c(-c3ccc(N4C(=O)CC(*)C4=O)cc3C(=O)[O-])c3ccc(=[N+](C)C)cc-3oc2c1 Where only a bound is given, the exact number is not on record here.

One data set addresses T1, SpGpsB1-63 (Streptococcus pneumoniae, UniProt Q8DR57).
T1 construct: The SpGpsB1-63 expression construct (pET28SpGpsB1-63) was prepared by PCR amplification of gpsB; His6 (N, cleaved yes); made in house; host or cells: E. coli BL21(DE3)
Briefly: Fluorescence polarisation binding to SpGpsB1-63. Conditions: FP, relative to wild-type SpPBP2a23-45. The text has this: (§1) 75 the BsGpsB5-64:BsPBP11-17 complex.
Background: In fluorescence polarisation assays a small probe gives low polarisation when free and higher when bound to something large.

A short description of data set [1]: Circular dichroism of PBP peptides (helicity). The format is physicochemical. As to conditions: CD, 222 nm, 4 °C, 20 mM sodium phosphate pH 7.3, 25 μM peptide. How it is done: CD spectra were recorded on a JASCO J-810 spectropolarimeter with a PTC-4235 Peltier temperature controller using 1 mm path length quartz cuvettes. For full wavelength scans a scan speed of 10 nm^−1min^−1 and a response time of 4 s were used, the final spectra were the average of at least four measurements. BsPBP1_1-32 CD spectra were recorded at 4 °C in a buffer of 20 mM sodium phosphate, pH 7.3 at a peptide concentration of 25 μM. Peptide helical contents were estimated from molar ellipticities at 222 nm using the equation helix = [θ]222 nm / (39,500(1–2.57/n))[78] where n is the number of residues in the peptide. LmPBPA1_1-15 CD spectra were analysed at 40 μM in 20 mM sodium phosphate buffer, pH 7.8, for samples containing 0, 40 and 60% trifluoroethanol (TFE). For samples containing 80% TFE, 5 mM sodium phosphate buffer, pH 7.8, was used. The CD spectra of BsGpsB1-68 proteins were measured at a concentration of 4.5 μM in a buffer of 20 mM sodium phosphate (pH 7.8) 150 mM NaCl. For thermal melt experiments, a response time of 8 s and scan rate of 1 °C^−1min^−1 were used. All thermal melts were reversible as CD spectra recorded before and after the melts in the wavelength range 200–240 nm could be superimposed.
On the technique in general: Circular dichroism is widely used to follow secondary structure.

In another data set the target is T2, BsGpsB1-68 (Bacillus subtilis, UniProt P0CI74).
T2 construct: His6 (N, cleaved yes); made in house; host or cells: E. coli BL21(DE3)
The format is binding. As to conditions: FP, relative to wild-type peptide.
Description: as §1

Another data set relates to LmGpsB. Briefly: BACTH (bacterial two-hybrid) interaction with LmGpsB. The format is cell-based, Listeria monocytogenes. As to conditions: E. coli BTH101, 30 °C, photographed after 24 and 48 h; LmPBPA1 variants as T25-PBPA1ΔGT-TP. The text has this:
The BACTH system[63] was used for analysis of protein:protein interactions. First, LmGpsB was screened against LmPBPA1 (lmo1892) variants to identify residues in LmPBPA1 that are important for binding LmGpsB. To facilitate screening, we used a T25 fragment of Bordetella pertussis adenylate cyclase that had been fused to the N-terminal 91 amino acids of LmPBPA1 to create a T25-LmPBPA1 fusion containing the N-terminal cytoplasmic mini-domain and the transmembrane helix, but lacking lacking the extracellular glycosyltransferase and transpeptidase domains (T25-PBPA1ΔGT-TP) in plasmid pSH437[21]. LmPBPA1 residues that corresponded to the BsGpsB binding motif of BsPBP1 (Thr7, Arg8, Tyr11, Arg12) and additional positively charged amino acids (Lys14, Lys20, Lys21, Lys22, Lys25, Arg26, Lys28 and Arg29) in T25-PBP A1ΔGT-TP were replaced with alanine prior to screening against GpsB-T18. The pSH437 plasmid was mutated by Quikchange mutagenesis using the primer pairs SHW744/SHW754 (T7A, pSH485), SHW746/SHW747 (R8A, pSH486), SHW755/SHW756 (Y11A, pSH487), SHW748/SHW749 (R12A, pSH488), SHW757/SHW758 (K14A, pSH489), SHW759/SHW760 (K20A, pSH490), SHW761/SHW762 (K21A, pSH491), SHW763/SHW764 (K22A, pSH492), SHW765/SHW766 (K25A, pSH493), SHW767/SHW768 (R26A, pSH494), SHW769/SHW770 (K28A, pSH495) and SHW771/SHW772 (R29A, pSH496).
pJR164 and pJR169 were constructed by cloning sepF (primers JR334/JR335 and XbaI/KpnI digestion) into pKT25 and p25-N, respectively. pJR165 and pJR170 were generated by cloning ezrA into pKT25 and p25-N, respectively, using primers JR339/JR340 and XbaI/KpnI for digestion. pJR172 and pJR174 were obtained by cloning zapA into pKT25 and p25-N, respectively, using primers JR337/JR338 and PstI/KpnI. pJR213 was constructed by amplification of divIB with primers JR353/JR354 and cloning into pKT25 using XbaI/KpnI. pJR214 was generated by PCR amplification of divIC with primers JR355/JR356 and cloning into pKT25 using XbaI/KpnI. mreBH was amplified by PCR using oligonucleotides JR368/JR369 and cloned into pKT25 and p25-N using XbaI/KpnI, resulting in pJR233 and pJR236, respectively. pJR242 and pJR243 were obtained by cloning mreC into pKT25 and p25-N, respectively, using primers JR364/JR365 and PstI/KpnI digestion. pbpA2 was cloned into pKT25 using oligonucleotides SHW153/SHW154 and XbaI/KpnI to create pJR250. pbpB1 was amplified with primers SHW157/SHW158 and cloned with SmaI/EcoRI into pKT25, yielding pSH236. pbpB2 was amplified with primers SHW155/SHW156 and cloned into pKT25 after PstI/BamHI digestion, yielding plasmid pSH235. pbpB3 was amplified using primers SHW159/160 and cloned by PstI/BamHI digestion into pKT25, resulting in pSH237. Finally, pSH484 was obtained by removing the N-terminal domain from gpsB present on plasmid pSH226 in a PCR with the primer pair SHW752/SHW753.
Plasmids encoding the respective genes fused to the N- or C-termini of the T18- or the T25-fragment of the Bordetella pertussis adenylate cyclase were co-transformed into E. coli BTH101. Transformants were selected on LB agar plates containing ampicillin (100 µg^−1mL^−1), kanamycin (50 µg^−1mL^−1), X-Gal (40 µg^−1mL^−1) and IPTG (0.1 mM) and photographs were taken after 24 and 48h growth at 30 °C. The BACTH experiments in Fig. 2b and Supplementary Figure 3C, D were repeated at least twice.

For the molecule `CC[C@H](C)[C@H](NC(=O)[C@@H]1CCCN1C(=O)[C@H](CSC1CC(=O)N(c2ccc(-c3c4ccc(=[N+](C)C)cc-4oc4cc(N(C)C)ccc34)c(C(=O)[O-])c2)C1=O)NC(=O)[C@@H](NC(=O)[C@H](CCC(N)=O)NC(=O)[C@H](C)NC(=O)[C@H](CC(C)C)NC(=O)[C@H](CCCCN)NC(=O)[C@H](CCCCN)NC(=O)[C@H](CCCNC(=N)N)NC(=O)[C@H](CC(=O)O)NC(=O)[C@H](CO)NC(=O)[C@H](CCCCN)NC(=O)[C@H](CO)NC(=O)[C@H](CCCCN)NC(=O)[C@H](CCCNC(=N)N)NC(=O)[C@H](CC(C)C)NC(=O)[C@@H](NC(=O)[C@@H](NC(=O)[C@H](CO)NC(=O)[C@H](CC(=O)O)NC(=O)[C@H](CO)NC(=O)[C@H](CC(=O)O)NC(=O)[C@H](CCSC)NC(=O)[C@H](CO)NC(=O)CN)[C@@H](C)O)[C@@H](C)CC)C(C)C)C(=O)O` (stereo partly drawn) [TAMRA-SpPBP2a23-45 Arg31LysArg33Lys] (H-GSMDSDSTILRKSKSDRKKLAQVC(X1)PI-OH), the “reduction in affinity for SpGpsB1-63” value at SpGpsB1-63 is greater than 25 fold.
Take `CSCC[C@H](NC(=O)[C@H](CO)NC(=O)CN)C(=O)N[C@@H](C)C(=O)N[C@@H](CC(=O)O)C(=O)N[C@@H](CCC(N)=O)C(=O)N[C@@H](Cc1ccccc1)C(=O)N[C@@H](CC(N)=O)C(=O)N[C@@H](C)C(=O)N[C@@H](CCCNC(=N)N)C(=O)N[C@@H](CCC(=O)O)C(=O)N[C@@H](C)C(=O)N[C@@H](CCCNC(=N)N)C(=O)N[C@@H](CCCNC(=N)N)C(=O)N[C@@H](CCCCN)C(=O)N[C@@H](C)C(=O)N[C@@H](CC(N)=O)C(=O)N[C@@H](CSC1CC(=O)N(c2ccc(-c3c4ccc(=[N+](C)C)cc-4oc4cc(N(C)C)ccc34)c(C(=O)[O-])c2)C1=O)C(=O)N[C@@H](CCCCN)C(=O)N[C@@H](CO)C(=O)N[C@@H](CO)C(=O)N1CCC[C@H]1C(=O)N[C@@H](CO)C(=O)N1CCC[C@H]1C(=O)N[C@@H](CCCCN)C(=O)N[C@@H](CCCCN)C(=O)NCC(=O)N[C@@H](CCCCN)C(=O)N[C@@H](CCCCN)C(=O)N[C@@H](CCCNC(=N)N)C(=O)N[C@@H](CCCCN)C(=O)N[C@@H](CCCCN)C(=O)NCC(=O)NCC(=O)O` (stereo partly drawn) [TAMRA-BsPBP11-32 Ser7Ala] (H-GSMADQFNAREARRKANC(X1)KSSPSPKKGKKRKKGG-OH): the “helical residues corresponding to helical content” value in data set [1] was ~ 6 residues. Also, the α-helical content in data set [1] (average of at least four measurements) came to 19%. The “reduction in affinity for BsGpsB1-68” value is on record as “at least 6 fold” on BsGpsB1-68 (listed as BsPBP1_1-32^Ser7Ala) and greater than 5 fold at BsGpsB1-68 (listed as BsPBP11-32Ser7Ala).

B1: LmGpsB: L. monocytogenes GpsB (self-interaction) (protein)
chain: MTSEQFEYHLTGKEILEKEFKTGLRGYSPEDVDEFLDMVIKDYSTFTQEIEALQAENIRLVQELDNAPLRTSTQPAPTFQAAAQPAGTTNFDILKRLSNLEKHVFGNKLDDNE
modifications: left off: T18 fragment of Bordetella pertussis adenylate cyclase, C-terminal, kept
In the case of B1, in the data set with LmGpsB, the “BACTH interaction with LmGpsB” value is “turned blue after one day of incubation”.

B2: LmSepF: L. monocytogenes SepF (protein)
chain: MGLSNKFKSFFFLDEEEEYYEEEVAREPEPMQKKTKKEKPNKNRFYAVEEDDAKVVSMQGAQFSSRMVLAEPRVYAEAQELADYLKEYKSVVVNLQRISHDQATRIVDFLSGTVYALGGDIQRVGNNIFLCTPDNVEVDGSISEMLDEQNFM
modifications: left off: T25 fragment of Bordetella pertussis adenylate cyclase (vectors pKT25 and p25-N), end not stated, kept
notes: L. monocytogenes SepF
B2: in the data set with LmGpsB, the “BACTH interaction with LmGpsB” value was “turned blue after one day of incubation”.

B3: LmMreC: L. monocytogenes MreC (protein)
chain: MPQFFLNKRLIILLISIIVLVALVGFSLRDRENASWPEQFVKDVVGFGENIVAKPTSFISGAVDGVVDLKNTYTENQHLKERLEELAQLESEVADLKKENKDLKESLDITDSIRDYDPLNASVISRNPTNWNDQVEIDKGSSDGVKPDMAVTTPSGLIGKVTTTGAKSATVELLTSSDVKNRVSAKVQGKENAFGIINGYDSDTKLLELKQLPYDMKFKKGQKVVTSGLGGKFPAGIFIGTIEKVETDKMGLSQTAFIKPGADMYDLNHVTVLKRSAEAGTTDDDTTSSDTTGGQ
modifications: left off: T25 fragment of Bordetella pertussis adenylate cyclase (vectors pKT25 and p25-N), end not stated, kept
notes: L. monocytogenes MreC
For the molecule B3, the “BACTH interaction with LmGpsB” value in the data set on LmGpsB was “turned blue after one day of incubation; also recorded: turned blue after 2 days incubation”.

B4: LmDivIB: L. monocytogenes DivIB (protein)
chain: MAENKRVISIENRIPELKKYRKKKLVRHLAILIGIFVILIAITLYFLSPLSKLDKIAVSGNKQLTENEVRKESGLEIGEFVIGISNGKTEDALKKNTLIKDATVSKEGLNDVQINITEFKTIGYQQQDGKYYDVLESGIMLTDQPRQFPIGNDLLFQNFKNGKTLEKMVDQINKLPKDVVSSISEVIYSPTKSDKNHIKLYMNDGNQVSADISTFAEKMQHYPAIVAQLAKGQKGVIDIEVGSYFQSYYQQNAEKKATEEAAKEKKETNE
modifications: left off: T25 fragment of Bordetella pertussis adenylate cyclase (vector pKT25), end not stated, kept
notes: L. monocytogenes DivIB
Take B4: the “BACTH interaction with LmGpsB” value in the data set with LmGpsB was “turned blue after 2 days incubation”.
